Measured values published in patent US20220061311A1, “COMPOSITIONS AND METHODS FOR REDUCING CRYOPRESERVATION TOXICITY” (The Regents of the University of Colorado, a body, priority 2018, published 2022).
Several values for one entry are separate records, joined by “and”; a condition that tells them apart may be missing. Equal entries are not always repeated. Where two headings read alike, the source gives them in different places.

Columns and labels:
MYH9 protein = MYH9 protein (Homo sapiens, UniProt P35579); details: Chiu et al., Molecular Oncology 6, 2012; cited from earlier work
Sequence of MYH9 protein (P35579 whole entry, species assumed): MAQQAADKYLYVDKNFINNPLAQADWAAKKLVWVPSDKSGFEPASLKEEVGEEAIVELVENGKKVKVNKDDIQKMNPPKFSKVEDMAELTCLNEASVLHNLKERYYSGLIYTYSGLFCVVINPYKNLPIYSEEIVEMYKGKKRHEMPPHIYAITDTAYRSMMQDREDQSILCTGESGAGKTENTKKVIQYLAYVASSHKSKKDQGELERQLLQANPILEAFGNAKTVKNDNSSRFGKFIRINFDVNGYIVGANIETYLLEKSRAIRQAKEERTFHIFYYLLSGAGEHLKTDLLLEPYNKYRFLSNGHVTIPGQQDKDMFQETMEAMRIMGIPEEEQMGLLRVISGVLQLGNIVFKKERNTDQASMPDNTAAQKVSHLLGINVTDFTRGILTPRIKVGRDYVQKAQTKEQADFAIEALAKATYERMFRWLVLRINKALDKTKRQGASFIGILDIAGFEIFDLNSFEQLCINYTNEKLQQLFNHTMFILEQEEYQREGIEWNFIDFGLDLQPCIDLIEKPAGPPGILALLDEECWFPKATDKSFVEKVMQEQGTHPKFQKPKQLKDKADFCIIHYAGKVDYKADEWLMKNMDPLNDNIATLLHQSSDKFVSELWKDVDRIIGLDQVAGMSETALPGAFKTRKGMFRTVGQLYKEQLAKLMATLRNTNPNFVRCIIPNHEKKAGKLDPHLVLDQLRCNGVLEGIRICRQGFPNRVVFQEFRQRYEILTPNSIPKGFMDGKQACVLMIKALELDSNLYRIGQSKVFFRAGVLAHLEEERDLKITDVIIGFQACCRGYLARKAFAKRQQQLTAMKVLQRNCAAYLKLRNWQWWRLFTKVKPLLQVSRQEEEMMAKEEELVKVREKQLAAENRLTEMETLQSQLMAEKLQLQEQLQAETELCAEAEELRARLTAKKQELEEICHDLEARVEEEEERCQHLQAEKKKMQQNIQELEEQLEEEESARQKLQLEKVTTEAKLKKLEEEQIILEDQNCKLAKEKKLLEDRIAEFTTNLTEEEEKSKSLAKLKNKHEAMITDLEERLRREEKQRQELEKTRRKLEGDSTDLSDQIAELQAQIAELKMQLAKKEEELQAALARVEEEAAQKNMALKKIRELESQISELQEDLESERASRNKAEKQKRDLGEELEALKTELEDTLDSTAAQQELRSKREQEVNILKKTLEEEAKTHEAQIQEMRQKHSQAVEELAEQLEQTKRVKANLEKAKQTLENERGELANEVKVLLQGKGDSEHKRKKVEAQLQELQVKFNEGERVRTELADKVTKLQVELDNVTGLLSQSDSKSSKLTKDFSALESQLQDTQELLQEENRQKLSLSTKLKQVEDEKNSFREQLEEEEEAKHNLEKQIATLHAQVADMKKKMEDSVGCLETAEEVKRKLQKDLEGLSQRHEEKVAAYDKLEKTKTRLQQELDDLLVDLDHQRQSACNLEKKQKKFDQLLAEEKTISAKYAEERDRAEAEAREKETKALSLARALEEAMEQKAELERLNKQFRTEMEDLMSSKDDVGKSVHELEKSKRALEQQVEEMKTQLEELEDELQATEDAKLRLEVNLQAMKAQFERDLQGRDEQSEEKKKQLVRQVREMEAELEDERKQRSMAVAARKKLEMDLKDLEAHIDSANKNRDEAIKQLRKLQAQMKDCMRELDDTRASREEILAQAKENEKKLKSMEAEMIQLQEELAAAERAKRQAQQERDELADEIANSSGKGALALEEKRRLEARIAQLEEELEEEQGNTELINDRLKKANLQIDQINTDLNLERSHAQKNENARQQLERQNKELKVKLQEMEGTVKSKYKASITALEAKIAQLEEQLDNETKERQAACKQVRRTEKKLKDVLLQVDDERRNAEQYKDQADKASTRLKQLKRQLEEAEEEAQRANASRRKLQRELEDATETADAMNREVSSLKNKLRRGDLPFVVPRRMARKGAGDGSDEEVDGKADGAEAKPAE

HSBP1 protein = details: Arai et al., Chem. Sci., 2016; cited from earlier work
TJ1060 worms [1] = assay: Survival on Afatinib on agar plates; format: in vivo, C. elegans; parameters: Mean (survival): unit not given here; details: for Mean (survival) / survival (vs no Afatinib control): agar plates
Procedure: Eggs from TJ1060 were put onto NGM agar plates with varying concentrations of Afatinib at 25° C. On day 3, sterile staged young adult worms were moved to agar plates with Afatinib at 20° C. and followed until all were dead.

ERB3/4 = details: cited from earlier work
[2] = system: Mouse embryonic stem cells (ESCs); assay: Afatinib pre-treatment of mouse embryonic stem cells before M22 toxicity challenge; format: cell-based
Procedure: Mouse embryonic stem cells (ESCs) were pre-treated with Afatinib in concentrations of 1 nM, 7.5 nM, 15 nM, 30 nM, and 75 nM. The ESCs were then subjected to various concentrations of M22, including a lethal challenge of 6% in normal culture media.

TJ1060 worms [3] = assay: Worms on 10% M22 +/- Afatinib in liquid survival medium; format: in vivo, C. elegans; parameters: Mean (survival): unit not given here
Procedure: FIG. 6 is a histogram. Sterile young adult worms (TJ1060) were put into liquid survival medium with 10% M22 and varying concentrations of Afatinib and followed until all were dead. Data from 4 replicate blinded experiments are shown.
Young adult worms from TJ1060 were grown on agar plates at 25° C. with varying concentrations of Afatinib and put into liquid survival medium with 10% M22+/−Afatinib at 20° C. They were followed until all were dead. Data from 4 replicate experiments are shown; experiments were blinded.

[4] = 10% M22 + Afatinib 10 nM, summary of 4 experiments
[5] = 10% M22 + Afatinib 100 nM, summary of 4 experiments
[6] = 10% M22 + Afatinib 1000 nM, summary of 4 experiments

Cc1ccc2c(c1)C(=O)C1(O)CCN(c3ccccc3)C1=N2 (stereo not shown) [Blebbistatin]
inhibition of MYH9 protein (MYH9 protein): Blebbistatin inhibits the MYH9

COc1ccc(-c2cc(=O)c3c(O[C@@H]4O[C@H](CO[C@@H]5OC[C@@H](O)[C@H](O)[C@H]5O)[C@@H](O)[C@H](O)[C@H]4O)cc(OC)cc3o2)cc1 [Agalloside]
inhibition of HSBP1 protein (HSBP1 protein): Agalloside inhibits the HSBP1

CN(C)C/C=C/C(=O)Nc1cc2c(Nc3ccc(F)c(Cl)c3)ncnc2cc1O[C@H]1CCOC1 [Afatinib]
Mean (survival) (TJ1060 worms [1]; Afatinib 10 nM, no M22, single experiments): 20.5 and 19.7 and 19.1 and 22.1
survival (vs no Afatinib control) (TJ1060 worms [1]; Afatinib 10 nM, single experiments): less and ns
Mean (survival) (TJ1060 worms [1]; Afatinib 10 nM, summary): 20.3
survival (vs no Afatinib control) (TJ1060 worms [1]; Afatinib 10 nM, summary): ns
Mean (survival) (TJ1060 worms [1]; Afatinib 20 nM, no M22, single experiment): 21.1
survival (vs no Afatinib control) (TJ1060 worms [1]; Afatinib 20 nM, single experiment): ns
Mean (survival) (TJ1060 worms [1]; Afatinib 100 nM, no M22, single experiments): 19.4 and 21.1 and 19.8 and 21.8
survival (vs no Afatinib control) (TJ1060 worms [1]; Afatinib 100 nM, single experiments): less and more and ns
Mean (survival) (TJ1060 worms [1]; Afatinib 100 nM, summary): 20.4
survival (vs no Afatinib control) (TJ1060 worms [1]; Afatinib 100 nM, summary): ns
Mean (survival) (TJ1060 worms [1]; Afatinib 1000 nM, no M22, single experiments): 20.8 and 21.7 and 19.4 and 20.0
survival (vs no Afatinib control) (TJ1060 worms [1]; Afatinib 1000 nM, single experiments): ns and more and less
Mean (survival) (TJ1060 worms [1]; Afatinib 1000 nM, summary): 20.6
survival (vs no Afatinib control) (TJ1060 worms [1]; Afatinib 1000 nM, summary): less
longevity effect (TJ1060 worms [1]; worms, Afatinib without M22): did not have a longevity effect
IC50 (ERB3/4; read-out: IC50): ~1 nM
IC50 (ERB3/4; read-out: IC50 DOSE): 1 nM
resistance to M22 toxicity ([2]; ESCs pre-treated with Afatinib 1-75 nM, lower M22 concentrations (FIG. 1)): increased resistance to M22 toxicity
survival of otherwise lethal M22 challenge ([2]; ESCs pre-treated with Afatinib, 6% M22 in normal culture media (FIG. 1)): survived an otherwise lethal M22 challenge
survival of cells after cryopreservative toxicity challenge with M22 (FIG. 1) ([2]; cells treated with Afatinib prior to M22 challenge): increased survival
Mean (survival) (TJ1060 worms [3]; 10% M22 + Afatinib 10 nM, liquid, 20° C., single experiments): 12.4 and 12.3 and 14.6 and 10.4
resistance (vs no Afatinib control) (TJ1060 worms [3]; 10% M22 + Afatinib 10 nM, single experiments): ns and less
Mean (survival) (TJ1060 worms [3]; [4]): 12.5
resistance (vs no Afatinib control) (TJ1060 worms [3]; [4]): ns
Mean (survival) (TJ1060 worms [3]; 10% M22 + Afatinib 100 nM, liquid, 20° C., single experiments): 13.5 and 13.2 and 15.3 and 11.3
resistance (vs no Afatinib control) (TJ1060 worms [3]; 10% M22 + Afatinib 100 nM, single experiments): more and ns
Mean (survival) (TJ1060 worms [3]; [5]): 13.4
resistance (vs no Afatinib control) (TJ1060 worms [3]; [5]): more
Mean (survival) (TJ1060 worms [3]; 10% M22 + Afatinib 1000 nM, liquid, 20° C., single experiments): 13.2 and 13.0 and 15.6 and 10.3
resistance (vs no Afatinib control) (TJ1060 worms [3]; 10% M22 + Afatinib 1000 nM, single experiments): ns and more
Mean (survival) (TJ1060 worms [3]; [6]): 13.0
resistance (vs no Afatinib control) (TJ1060 worms [3]; [6]): ns
protection of worms in 10% M22 (TJ1060 worms [3]; Afatinib 10 or 1000 nm): not
survival in 10% M22 compared with control of no afatinib (FIG. 6) (TJ1060 worms [3]; Afatinib at 100 nM, 4 replicate blinded experiments, p<0.001): significantly better than control of no afatinib
protection of worms in 10% M22 (TJ1060 worms [3]; Afatinib concentration of 100 nm): protects worms in 10% M22
